Assay results taken from patent publication US10800792B2, “Inhibitors of Bruton's tyrosine kinase and method of their use” (JANSSEN PHARMACEUTICA NV, priority 2015, dated 2020).
Like-named read-outs stand apart in the source and are kept apart here.

Biological target: unphosphorylated-BTK kinase domain (UP-BTK), GST-tagged human BTK (389-659aa) (Homo sapiens (Human), UniProt Q06187)
Assay: BTK kinase Lanthascreen binding assay
Details: pIC50 = negative log of the IC50 in molar; for IC50: read-out: BTK_I_binding pIC50 (converted)
In short: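 Lanthascreen competition binding; test compound vs fluorescent tracer on unphosphorylated BTK. Output: pIC50 (−log IC50, M).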

[1] = unphosphorylated-BTK kinase domain, 50 nM Tracer 236, 60 minutes
[2] = Lanthascreen tracer competition, 60 minutes incubation

unphosphorylated-BTK kinase domain (UP-BTK), GST-tagged human BTK (389-659aa), sequence (Q06187 389-659): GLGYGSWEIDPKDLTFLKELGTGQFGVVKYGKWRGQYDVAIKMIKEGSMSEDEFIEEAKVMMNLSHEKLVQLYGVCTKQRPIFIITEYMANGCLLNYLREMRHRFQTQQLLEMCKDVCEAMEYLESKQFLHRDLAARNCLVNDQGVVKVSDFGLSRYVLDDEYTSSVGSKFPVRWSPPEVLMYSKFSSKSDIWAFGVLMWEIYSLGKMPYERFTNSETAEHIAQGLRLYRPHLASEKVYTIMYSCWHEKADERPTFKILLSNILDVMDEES

BTK_I_binding pIC50 [1] | BTK_I_binding pIC50 [2] | Structure (SMILES) | further results
7.8 |  | Cc1cc(Oc2ccccc2)ccc1N1C(=O)Nc2c(C(=O)N[C@@H]3CCCN(C(=O)/C=C/CO)C3)sc3nccc1c23 (single isomer, unassigned) [Example 503, (R,E)-N-(1-(4-Hydroxybut-2-enoyl)piperidin-3-yl)-5-(*S)-(2-methyl-4-phenoxyphenyl)-4-oxo-4,5-dihydro-3H-1-thia-3,5,8-triazaacenaphthylene-2-carboxamide] | 
7.9 |  | Cc1cc(Oc2ccccc2)ccc1N1C(=O)Nc2c(C(=O)N[C@@H]3CCCN(C(=O)/C(C#N)=C/C4(C)COC4)C3)sc3nccc1c23 (single isomer, unassigned) [Example 509, (R,EZ)—N-(1-(2-Cyano-3-(3-methyloxetan-3-yl)acryloyl)piperidin-3-yl)-5-(*S)-(2-methyl-4-phenoxyphenyl)-4-oxo-4,5-dihydro-3H-1-thia-3,5,8-triazaacenaphthylene-2-carboxamide] | 
8.1 |  | Cc1cc(Oc2ccccc2)ccc1N1C(=O)Nc2c(C(=O)N[C@@H]3CCN(C(=O)/C=C/CN)C3)sc3nccc1c23 (single isomer, unassigned) [Example 520, (R,E)-N-(1-(4-Aminobut-2-enoyl)pyrrolidin-3-yl)-5-(*S)-(2-methyl-4-phenoxyphenyl)-4-oxo-4,5-dihydro-3H-1-thia-3,5,8-triazaacenaphthylene-2-carboxamide] | 
8.0 |  | Cc1cc(Oc2ccccc2)ccc1N1C(=O)Nc2c(C(=O)N[C@@H]3CCN(C(=O)/C=C/CO)C3)sc3nccc1c23 (single isomer, unassigned) [Example 522, (R,E)-N-(1-(4-Hydroxybut-2-enoyl)pyrrolidin-3-yl)-5-(*S)-(2-methyl-4-phenoxyphenyl)-4-oxo-4,5-dihydro-3H-1-thia-3,5,8-triazaacenaphthylene-2-carboxamide] | 
7.8 |  | CN[C@@H](C)C(=O)N1CCC[C@@H](NC(=O)c2sc3nccc4c3c2NC(=O)N4c2ccc(Oc3ccccc3)cc2C)C1 (single isomer, unassigned) [Example 524, 5-(*S)-(2-Methyl-4-phenoxyphenyl)-N—((R)-1-((S)-2-(methylamino)propanol)piperidin-3-yl)-4-oxo-4,5-dihydro-3H-1-thia-3,5,8-triazaacenaphthylene-2-carboxamide] | 
8.0 |  | C=CS(=O)(=O)N1CCC[C@@H](NC(=O)c2sc3nccc4c3c2NC(=O)N4c2ccc(Oc3ccccc3)cc2C)C1 (single isomer, unassigned) [Example 530, (R)-5-(*S)-(2-Methyl-4-phenoxyphenyl)-4-oxo-N-(1-(vinylsulfonyl)piperidin-3-yl)-4,5-dihydro-3H-1-thia-3,5,8-triazaacenaphthylene-2-carboxamide] | 
 |  | [2H]C([2H])([2H])N1CCC[C@@H](NC(=O)c2sc3nccc4c3c2NC(=O)N4c2ccc(Oc3ccccc3)cc2C)C1 (single isomer, unassigned) [Example 535, (R)-5-(*S)-(2-Methyl-4-phenoxyphenyl)-N-(1-trideuteriomethylpiperidin-3-yl)-4-oxo-4,5-dihydro-3H-1-thia-3,5,8-triazaacenaphthylene-2-carboxamide] | IC50 [1]: 31.6 nM
7.2 |  | CCS(=O)(=O)N1CCC[C@@H](NC(=O)c2sc3nccc4c3c2NC(=O)N4c2ccc(Oc3ccccc3)cc2C)C1 (single isomer, unassigned) [Example 539, (R)—N-(1-(Ethylsulfonyl)piperidin-3-yl)-5-(*S)-(2-methyl-4-phenoxyphenyl)-4-oxo-4,5-dihydro-3H-1-thia-3,5,8-triazaacenaphthylene-2-carboxamide] | 
7.2 |  | Cc1cc(Oc2ccccc2)ccc1N1C(=O)Nc2c(C(=O)N[C@@H]3CCCN(C(C)C)C3)sc3nccc1c23 (single isomer, unassigned) [Example 542, (R)—N-(1-Isopropylpiperidin-3-yl)-5-(*S)-(2-methyl-4-phenoxyphenyl)-4-oxo-4,5-dihydro-3H-1-thia-3,5,8-triazaacenaphthylene-2-carboxamide] | 
8.1 |  | Cc1cc(Oc2ccccc2)ccc1N1C(=O)Nc2c(C(=O)N[C@@H]3CCN(C(=O)/C=C/CN4C[C@@H]5OCCO[C@@H]5C4)C3)sc3nccc1c23 (single isomer, unassigned) [Example 555, 5-(*S)-(2-Methyl-4-phenoxyphenyl)-4-oxo-N—((R)-1-((E)-4-((4aR,7aS)-tetrahydro-2H-[1,4]dioxino[2,3-c]pyrrol-6(3H)-yl)but-2-enol)pyrrolidin-3-yl)-4,5-dihydro-3H-1-thia-3,5,8-triazaacenaphthylene-2-carboxamide] | 
 |  | CC(C)(C)OC(=O)N1C[C@H](O)C[C@@H](NC(=O)c2sc3nccc4c3c2NC(=O)N4c2ccc(Oc3ccccc3)cc2)C1 (single isomer, unassigned) [Example 611] | IC50 [2]: 631 nM
 | 8.1 | C=CC(=O)N1CCC[C@@H](NC(=O)c2sc3nccc4c3c2NC(=O)N4c2cnc(Oc3ccccc3)cc2C)C1 (single isomer, unassigned) [Example 662, (R)—N-(1-Acryloylpiperidin-3-yl)-5-(*S)-(4-methyl-6-phenoxypyridin-3-yl)-4-oxo-4,5-dihydro-3H-1-thia-3,5,8-triazaacenaphthylene-2-carboxamide] | 
 | 8.0 | C=CC(=O)N1CC[C@@H](NC(=O)c2sc3nccc4c3c2NC(=O)N4c2cnc(Oc3ccccc3)cc2C)C1 (single isomer, unassigned) [Example 663, (R)—N-(1-Acryloylpyrrolidin-3-yl)-5-(*S)-(4-methyl-6-phenoxypyridin-3-yl)-4-oxo-4,5-dihydro-3H-1-thia-3,5,8-triazaacenaphthylene-2-carboxamide] | 
 | 7.6 | C=CC(=O)N1CC[C@@H](NC(=O)c2sc3nccc4c3c2NC(=O)N4c2cnc(Oc3ccccc3)nc2C)C1 (single isomer, unassigned) [Example 664, (R)—N-(1-Acryloylpyrrolidin-3-yl)-5-(*S)-(4-methyl-2-phenoxypyrimidin-5-yl)-4-oxo-4,5-dihydro-3H-1-thia-3,5,8-triazaacenaphthylene-2-carboxamide] | 
 | 6.3 | C=CC(=O)N1CC[C@@H](NC(=O)c2sc3nccc4c3c2NC(=O)N4c2ccc(Oc3ccccc3)nc2C)C1 (single isomer, unassigned) [Example 666, (R)—N-(1-Acryloylpyrrolidin-3-yl)-5-(*R)-(2-methyl-6-phenoxypyridin-3-yl)-4-oxo-4,5-dihydro-3H-1-thia-3,5,8-triazaacenaphthylene-2-carboxamide] | 
 |  | C=CC(=O)N[C@H]1COC[C@H]1NC(=O)c1sc2nccc3c2c1NC(=O)N3c1cnc(Oc2ccccc2)cc1C (single isomer, unassigned) [Example 668, N-(cis-4-Acrylamidotetrahydrofuran-3-yl)-5-(*)-(4-methyl-6-phenoxypyridin-3-yl)-4-oxo-4,5-dihydro-3H-1-thia-3,5,8-triazaacenaphthylene-2-carboxamide] | IC50 [2]: 15.8 nM
 | 7.6 | C=CC(=O)N1CCC[C@@H](NC(=O)c2sc3nccc4c3c2NC(=O)N4c2ccnc(-c3ccccc3)c2C)C1 (single isomer, unassigned) [Example 676, (R)—N-(1-Acryloylpiperidin-3-yl)-5-(*R)-(3-methyl-2-phenylpyridin-4-yl)-4-oxo-4,5-dihydro-3H-1-thia-3,5,8-triazaacenaphthylene-2-carboxamide] | 
 |  | Cc1cc(Oc2ccccc2)ccc1N1C(=O)Nc2c(C(=O)N[C@@H]3CCCN(C(=O)/C=C/CN4C[C@@H]5OCCO[C@@H]5C4)C3)sc3nccc1c23 (single isomer, unassigned) [Example 684, 5-(*S)-(2-Methyl-4-phenoxyphenyl)-4-oxo-N—((R)-1-((E)-4-((4aR,7aS)-tetrahydro-2H-[1,4]dioxino[2,3-c]pyrrol-6(3H)-yl)but-2-enoyl)piperidin-3-yl)-4,5-dihydro-3H-1-thia-3,5,8-triazaacenaphthylene-2-carboxamide] | IC50 [2]: 31.6 nM
 | 6.8 | Cc1cc(Oc2ccccc2)ncc1N1C(=O)Nc2c(C(=O)N[C@@H]3CCNC3)sc3nccc1c23 (single isomer, unassigned) [Example 702, (R)-5-(*S)-(4-Methyl-6-phenoxypyridin-3-yl)-4-oxo-N-(pyrrolidin-3-yl)-4,5-dihydro-3H-1-thia-3,5,8-triazaacenaphthylene-2-carboxamide] | 
 | 6.3 | Cc1nc(Oc2ccccc2)ncc1N1C(=O)Nc2c(C(=O)N[C@@H]3CCNC3)sc3nccc1c23 (single isomer, unassigned) [Example 715, (R)-5-(*S)-(4-Methyl-2-phenoxypyrimidin-5-yl)-4-oxo-N-(pyrrolidin-3-yl)-4,5-dihydro-3H-1-thia-3,5,8-triazaacenaphthylene-2-carboxamide] | 

Structure (SMILES) | BTK_I_binding pIC50 [1] | BTK_I_binding pIC50 [2] | further results
C=CC(=O)N1CCC[C@@H](NC(=O)c2sc3nccc4c3c2NC(=O)N4c2ccc(OC3CCC3)cc2C)C1 (single isomer, unassigned) [Example 609, (R)—N-(1-Acryloylpiperidin-3-yl)-5-(*S)-(4-cyclobutoxy-2-methylphenyl)-4-oxo-4,5-dihydro-3H-1-thia-3,5,8-triazaacenaphthylene-2-carboxamide] |  | 6.3 | 
C=CC(=O)N1CCC[C@@H](NC(=O)c2sc3nccc4c3c2NC(=O)N4c2ccc(OC3CCC3)nc2C)C1 (single isomer, unassigned) [Example 682, (R)—N-(1-Acryloylpiperidin-3-yl)-5-(*S)-(6-cyclobutoxy-2-methylpyridin-3-yl)-4-oxo-4,5-dihydro-3H-1-thia-3,5,8-triazaacenaphthylene-2-carboxamide] |  | 7.3 | 
